Experiments:
[1] = test system: MDA-MB-231; assay: Cytotoxicity in human MDA-MB-231 cells assessed as reduction in cell viability incubated for 72 hrs by MTS assay; assay type: functional, cell-based; settings: for IC50: MDA-MB-231, 72 h
[2] = species on record: Homo sapiens; assay: Selectivity index, ratio of Ki for inhibition of C-terminal 6x-histidine tagged beta-catenin (138 to 686 residues) (unknown origin) expressed in Escherichia coli BL21 DE3/N-terminally biotinylated human E-cadherin (824 to 877 residues) protein-protein interactions by Alpha-screen assay to Ki for …
[3] = test system: SW480; assay: Cytotoxicity in human SW480 cells assessed as reduction in cell viability incubated for 72 hrs by MTS assay; assay type: functional, cell-based; settings: for IC50: SW480, 72 h
[4] = test system: HT-29; assay: Cytotoxicity in human HT-29 cells assessed as reduction in cell viability incubated for 72 hrs by MTS assay; assay type: functional, cell-based; settings: for IC50: HT-29, 72 h
[5] = test system: HCT-116; assay: Cytotoxicity in human HCT116 cells assessed as reduction in cell viability incubated for 72 hrs by MTS assay; assay type: functional, cell-based; settings: for IC50: HCT-116, 72 h
[6] = molecular target: T1, beta-catenin-B-cell lymphoma 9 protein complex (Homo sapiens, UniProt P35222); assay: Inhibition of C-terminal 6x-histidine tagged beta-catenin (138 to 686 residues) (unknown origin) expressed in Escherichia coli BL21 DE3 /human BCL9 (350 to 375 residues) protein-protein interactions incubated for 1 hr by Alpha-screen assay
T1 sequence (P35222 whole entry): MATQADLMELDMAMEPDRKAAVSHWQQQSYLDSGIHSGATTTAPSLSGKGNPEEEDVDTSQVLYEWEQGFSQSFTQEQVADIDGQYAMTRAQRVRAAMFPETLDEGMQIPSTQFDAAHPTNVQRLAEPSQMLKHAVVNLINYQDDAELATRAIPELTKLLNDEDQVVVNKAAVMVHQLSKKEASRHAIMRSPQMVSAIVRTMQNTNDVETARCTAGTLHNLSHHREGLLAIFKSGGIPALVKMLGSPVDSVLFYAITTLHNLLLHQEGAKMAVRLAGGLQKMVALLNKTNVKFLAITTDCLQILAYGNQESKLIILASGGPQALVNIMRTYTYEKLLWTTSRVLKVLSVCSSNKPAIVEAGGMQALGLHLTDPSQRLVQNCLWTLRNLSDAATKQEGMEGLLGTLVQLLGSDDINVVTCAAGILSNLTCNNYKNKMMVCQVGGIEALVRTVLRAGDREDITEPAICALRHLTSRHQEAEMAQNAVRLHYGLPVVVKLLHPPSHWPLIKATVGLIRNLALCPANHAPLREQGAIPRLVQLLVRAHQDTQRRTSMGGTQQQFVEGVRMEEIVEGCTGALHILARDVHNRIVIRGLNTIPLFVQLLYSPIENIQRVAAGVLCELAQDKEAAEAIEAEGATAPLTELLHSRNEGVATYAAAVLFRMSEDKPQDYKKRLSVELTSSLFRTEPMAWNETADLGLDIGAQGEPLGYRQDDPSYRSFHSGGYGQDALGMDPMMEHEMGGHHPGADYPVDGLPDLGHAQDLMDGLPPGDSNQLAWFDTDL
T1 sequence (O00512 whole entry): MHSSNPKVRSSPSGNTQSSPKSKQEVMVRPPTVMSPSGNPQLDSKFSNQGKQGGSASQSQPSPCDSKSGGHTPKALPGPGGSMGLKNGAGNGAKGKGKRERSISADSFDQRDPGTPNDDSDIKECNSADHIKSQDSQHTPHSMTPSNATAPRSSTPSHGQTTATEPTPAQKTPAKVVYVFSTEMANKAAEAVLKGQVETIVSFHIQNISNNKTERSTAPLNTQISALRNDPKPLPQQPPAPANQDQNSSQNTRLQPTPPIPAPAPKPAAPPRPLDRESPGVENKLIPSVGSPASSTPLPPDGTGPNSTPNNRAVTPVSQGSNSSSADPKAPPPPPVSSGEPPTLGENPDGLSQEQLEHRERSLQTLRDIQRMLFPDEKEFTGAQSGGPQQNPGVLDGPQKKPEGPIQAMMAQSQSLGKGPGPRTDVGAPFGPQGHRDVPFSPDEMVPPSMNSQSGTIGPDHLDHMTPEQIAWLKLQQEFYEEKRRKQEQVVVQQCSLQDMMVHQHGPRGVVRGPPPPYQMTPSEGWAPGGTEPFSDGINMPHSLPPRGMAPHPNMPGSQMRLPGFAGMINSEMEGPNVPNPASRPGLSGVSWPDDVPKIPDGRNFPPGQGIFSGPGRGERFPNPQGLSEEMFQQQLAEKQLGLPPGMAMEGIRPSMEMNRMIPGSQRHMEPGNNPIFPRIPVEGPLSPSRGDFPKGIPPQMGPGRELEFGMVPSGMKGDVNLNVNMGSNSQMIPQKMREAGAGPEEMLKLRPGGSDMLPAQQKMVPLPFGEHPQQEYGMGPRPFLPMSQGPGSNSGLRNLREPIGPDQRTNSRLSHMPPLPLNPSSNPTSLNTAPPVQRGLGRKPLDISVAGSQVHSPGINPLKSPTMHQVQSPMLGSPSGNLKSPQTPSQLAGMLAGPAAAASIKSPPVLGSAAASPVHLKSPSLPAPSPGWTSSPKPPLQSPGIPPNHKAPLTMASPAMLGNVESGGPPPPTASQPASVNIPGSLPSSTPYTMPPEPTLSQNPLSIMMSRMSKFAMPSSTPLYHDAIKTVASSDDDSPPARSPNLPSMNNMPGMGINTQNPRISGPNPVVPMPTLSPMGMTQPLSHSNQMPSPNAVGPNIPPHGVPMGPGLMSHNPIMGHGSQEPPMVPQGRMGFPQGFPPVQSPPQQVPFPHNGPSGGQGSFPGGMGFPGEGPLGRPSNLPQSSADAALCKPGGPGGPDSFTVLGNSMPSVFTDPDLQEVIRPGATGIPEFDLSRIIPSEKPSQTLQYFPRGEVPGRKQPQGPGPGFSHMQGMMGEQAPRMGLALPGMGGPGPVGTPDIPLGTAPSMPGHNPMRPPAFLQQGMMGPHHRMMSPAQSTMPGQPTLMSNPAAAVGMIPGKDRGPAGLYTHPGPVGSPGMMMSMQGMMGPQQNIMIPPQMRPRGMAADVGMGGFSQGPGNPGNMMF

[7] = molecular target: beta-catenin-B-cell lymphoma 9 protein complex (Homo sapiens, UniProt P35222, D145A); assay: Inhibition of inhibited beta-catenin D145A mutant (unknown origin) expressed in Escherichia coli BL21 DE3 /human BCL9 (350 to 375 residues) protein-protein interactions by Alpha-screen assay
[8] = molecular target: beta-catenin-B-cell lymphoma 9 protein complex (Homo sapiens, UniProt P35222, D145A/E155A); assay: Inhibition of inhibited beta-catenin D145A/E155A mutant (unknown origin) expressed in Escherichia coli BL21 DE3 /human BCL9 (350 to 375 residues) protein-protein interactions by Alpha-screen assay
[9] = test system: A549; assay: Cytotoxicity in human A549 cells assessed as reduction in cell viability incubated for 72 hrs by MTS assay; assay type: functional, cell-based; settings: A549, 72 h
[10] = test system: SW480; assay: Inhibition of anchorage-independent growth in human SW480 cells incubated fro 18 days by crystal violet staining based assay; assay type: functional, cell-based
[11] = test system: MCF-10A; assay: Cytotoxicity in human MCF10A cells assessed as reduction in cell viability incubated for 72 hrs by MTS assay; assay type: cell-based

Row | SMILES | Ratio Ki [2] | Ki [6] [µM] | IC50 [1] [µM] | IC50 [3] [µM] | IC50 [5] [µM] | other results
1 | O=C(Nc1ccc(O[C@H]2CCNC2)c(-c2ccc(F)cc2)c1)c1ccc(O[C@H]2CCNC2)c(-c2ccc3ccccc3c2)c1 |  |  | 220 |  |  | 
2 | CC(C)c1cc2c(c(O)c1O)[C@@]1(C(=O)O)CCCC(C)(C)[C@@H]1CC2 [CARNOSIC ACID] | 73 |  |  | 10.5 | 8.67 | IC50 [4]: 20.2 µM
3 | O=C(Nc1ccc(O[C@H]2CCNC2)c(-c2ccc(F)cc2)c1)c1ccc(O[C@H]2CCNC2)c(-c2ccc(F)c(F)c2)c1 |  |  | 2.32 to 2.47 | 3.5 | 3.07 | Ki [7]: 13.4 µM; Ki [8]: 96.6 µM; IC50 [9]: 8.79 µM; inhibition [3]: Dose-dependent effect; inhibition [4]: Dose-dependent effect; IC50 [4]: 2.97 µM; inhibition [10]: Dose-dependent effect; inhibition [1]: Dose-dependent effect; inhibition [5]: Dose-dependent effect; IC50 [11]: 9.07 µM
4 | Cc1cc(C(=O)Nc2ccc(O[C@H]3CCNC3)c(-c3ccc(F)cc3)c2)ccc1O[C@H]1CCNC1 |  |  | 9.03 |  |  | 
5 | O=C(Nc1ccc(O[C@H]2CCNC2)c(-c2ccc(F)cc2)c1)c1ccc(O[C@H]2CCNC2)c(-c2ccc(F)cc2)c1 | 35 | 6.65 | 7.05 to 8.35 | 9.86 | 8.23 | IC50 [9]: 18.8 µM; IC50 [11]: 19.9 µM
6 | O=C(Nc1ccc(OC2CNC2)c(-c2ccc(F)cc2)c1)c1ccc(OC2CNC2)c(-c2ccc(F)c(F)c2)c1 | 16 |  |  |  |  | 

Second part, led by results:

Row | Ratio Ki [2] | Ki [6] [µM] | SMILES | IC50 [1] [µM] | IC50 [3] [µM] | IC50 [5] [µM] | other results
7 | 30 | 8.71 | O=C(Nc1ccc(O[C@H]2CCNC2)c(-c2ccc(F)c(F)c2)c1)c1ccc(O[C@H]2CCNC2)c(-c2ccc(F)c(F)c2)c1 |  |  |  | 
8 | 38 |  | NCCOc1ccc(NC(=O)c2ccc(OCCN)c(-c3ccc(F)c(F)c3)c2)cc1-c1ccc(F)cc1 |  |  |  | 
9 | 345 |  | O=C(NCCCC(=O)N1CCNCC1)c1ccc(-c2cc(C(=O)Nc3ccc(O[C@H]4CCNC4)c(-c4ccc(F)cc4)c3)ccc2O[C@H]2CCNC2)cc1 |  |  |  | 
10 |  | 11.6 | NCCOc1ccc(NC(=O)c2ccc(OCCN)c(-c3ccc(F)cc3)c2)cc1-c1ccc(F)cc1 |  |  |  | 

From ChEMBL document CHEMBL4419168, “Substituted n-([1,1''-biphenyl]-3-yl)-[1,1''-biphenyl]-3-carboxamide analogs as inhibitors for beta-catenin/b-cell lymphoma 9 interactions” (2018)
